Like-named read-outs stand apart in the source and are kept apart here.
Test system: Scleraxis (Scx) gene transcriptional activation in TT-D6 Scx-luciferase (ScxL) cell line
Experiment: SCX-LUC in vitro assay (Scx-luciferase reporter)
Type: cell-based
Settings: Mus musculus
[1] = 96 h, Table 3, four days, read-out: Scx-Luc (EC50 μM)

SMILES | EC50 [1] | EC50 (assays described above (Scx-Luc and ex vivo), read-out: EC50 in the assays described above)
Nc1n[nH]c2ccc(-c3ccc(S(=O)(=O)N4CC(F)(F)C[C@H]4CO)cc3F)c(F)c12 [Example 61, (S)-(1-((4-(3-amino-4-fluoro-1H-indazol-5-yl)-3-fluorophenyl)sulfonyl)-4,4-difluoropyrrolidin-2-yl)methanol] | 1.5 µM | –
Nc1n[nH]c2ccc(-c3ccc(S(=O)(=O)N4CC[C@@H](O)C4)cc3F)c(Cl)c12 [Example 6, (R)-1-((4-(3-amino-4-chloro-1H-indazol-5-yl)-3-fluorophenyl)sulfonyl)pyrrolidin-3-ol] | 4.41 µM | –
COc1c(-c2ccc(S(=O)(=O)N3CC(F)(F)C[C@H]3CO)cc2C)ccc2[nH]nc(N)c12 [Example 85, (S)-(1-((4-(3-amino-4-methoxy-1H-indazol-5-yl)-3-methylphenyl)sulfonyl)-4,4-difluoropyrrolidin-2-yl)methanol] | 1.79 µM | –
Cc1cc(S(=O)(=O)N[C@H]2C[C@H](O)C2)ccc1-c1ccc2[nH]nc(N)c2c1C [Example 9, 4-(3-amino-4-methyl-1H-indazol-5-yl)-N-((1r,3r)-3-hydroxycyclobutyl)-3-methylbenzenesulfonamide] | 4.96 µM | –
Cc1cc(S(=O)(=O)N2CC(O)C2)ccc1-c1ccc2[nH]nc(N)c2c1C [Example 11, 1-((4-(3-amino-4-methyl-1H-indazol-5-yl)-3-methylphenyl)sulfonyl)azetidin-3-ol] | 4.13 µM | –
Cc1cc(S(=O)(=O)N2CCC[C@H]2C(C)O)ccc1-c1ccc2[nH]nc(N)c2c1C (stereo partly drawn) [Example 60, 1-((S)-1-((4-(3-amino-4-methyl-1H-indazol-5-yl)-3-methylphenyl)sulfonyl)pyrrolidin-2-yl)ethan-1-ol] | 1.61 µM | –
Cc1cc(S(=O)(=O)NC2CCN(C)CC2)ccc1-c1ccc2[nH]nc(N)c2c1C [4-(3-amino-4-methyl-1H-indazol-5-yl)-3-methyl-N-(1-methylpiperidin-4-yl)benzenesulfonamide] | – | > 10 µM
Cc1c(-c2ccc(S(=O)(=O)N3CCC[C@H]3CO)cc2Cl)ccc2[nH]nc(N)c12 [Example 38, (S)-(1-((4-(3-amino-4-methyl-1H-indazol-5-yl)-3-chlorophenyl)sulfonyl)pyrrolidin-2-yl)methanol] | 2.04 µM | –
Cc1cc(S(=O)(=O)N2CCC(C)(O)C2)ccc1-c1ccc2[nH]nc(N)c2c1C (stereo not drawn) [Example 57, 1-((4-(3-amino-4-methyl-1H-indazol-5-yl)-3-methylphenyl)sulfonyl)-3-methylpyrrolidin-3-ol] | 2.71 µM | –
Cc1cc(S(=O)(=O)N2CCC(C#N)CC2)ccc1-c1ccc2[nH]nc(N)c2c1C [Example 23, 1-((4-(3-amino-4-methyl-1H-indazol-5-yl)-3-methylphenyl)sulfonyl)piperidine-4-carbonitrile] | 1.85 µM | –
Cc1cc(S(=O)(=O)N2CCCC(F)(F)C2)ccc1-c1ccc2[nH]nc(N)c2c1C [Example 79, 5-(4-((3,3-difluoropiperidin-1-yl)sulfonyl)-2-methylphenyl)-4-methyl-1H-indazol-3-amine] | 1.52 µM | –
Cc1cc(S(=O)(=O)N[C@@H]2CC[C@H](O)C2)ccc1-c1ccc2[nH]nc(N)c2c1C [Example 35, 4-(3-amino-4-methyl-1H-indazol-5-yl)-N-((1R,3S)-3-hydroxycyclopentyl)-3-methylbenzenesulfonamide] | 1.52 µM | –
Cc1cc(S(=O)(=O)N2CC[C@H]2CO)ccc1-c1ccc2[nH]nc(N)c2c1C [Example 10, (S)-(1-((4-(3-amino-4-methyl-1H-indazol-5-yl)-3-methylphenyl)sulfonyl)azetidin-2-yl)methanol] | 1.79 µM | –
Cc1cc(S(=O)(=O)N2CCC(F)(F)CC2)ccc1-c1ccc2[nH]nc(N)c2c1C [Example 80, 5-(4-((4,4-difluoropiperidin-1-yl)sulfonyl)-2-methylphenyl)-4-methyl-1H-indazol-3-amine] | 2.53 µM | –
Cc1cc(S(=O)(=O)N[C@H]2CCC[C@@]2(C)O)ccc1-c1ccc2[nH]nc(N)c2c1C [Example 59, 4-(3-amino-4-methyl-1H-indazol-5-yl)-N-((1S,2R)-2-hydroxy-2-methylcyclopentyl)-3-methylbenzenesulfonamide] | 3.32 µM | –
Cc1cc(S(=O)(=O)N[C@@H]2CCCC[C@@H]2O)ccc1-c1ccc2[nH]nc(N)c2c1C [Example 17, 4-(3-amino-4-methyl-1H-indazol-5-yl)-N-((1R,2S)-2-hydroxycyclohexyl)-3-methylbenzenesulfonamide] | 4.8 µM | –

Further compounds by falling EC50 [1], results first:

EC50 [1] | EC50 (assays described above (Scx-Luc and ex vivo), read-out: EC50 in the assays described above) | SMILES
1.33 µM | – | Cc1cc(S(=O)(=O)N[C@H]2CCC[C@]2(C)O)ccc1-c1ccc2[nH]nc(N)c2c1C [Example 58, 4-(3-amino-4-methyl-1H-indazol-5-yl)-N-((1S,2S)-2-hydroxy-2-methylcyclopentyl)-3-methylbenzenesulfonamide]
1.01 µM | – | Cc1cc(S(=O)(=O)N2C[C@@H](F)C[C@H]2CO)ccc1-c1ccc2[nH]nc(N)c2c1C [Example 92, ((2S,4S)-1-((4-(3-amino-4-methyl-1H-indazol-5-yl)-3-methylphenyl)sulfonyl)-4-fluoropyrrolidin-2-yl)methanol]
0.986 µM | – | Nc1n[nH]c2ccc(-c3ccc(S(=O)(=O)N4CC(F)(F)C[C@H]4CO)cc3F)c(Cl)c12 [Example 47, (S)-(1-((4-(3-amino-4-chloro-1H-indazol-5-yl)-3-fluorophenyl)sulfonyl)-4,4-difluoropyrrolidin-2-yl)methanol]
0.854 µM | – | Cc1cc(S(=O)(=O)N[C@H]2CCC[C@H]2O)ccc1-c1ccc2[nH]nc(N)c2c1C [Example 48, 4-(3-amino-4-methyl-1H-indazol-5-yl)-N-((1S,2R)-2-hydroxycyclopentyl)-3-methylbenzenesulfonamide]
0.814 µM | – | Cc1c(-c2ccc(S(=O)(=O)N3CC(F)(F)C[C@H]3CO)cc2F)ccc2[nH]nc(N)c12 [Example 42, (S)-(1-((4-(3-amino-4-methyl-1H-indazol-5-yl)-3-fluorophenyl)sulfonyl)-4,4-difluoropyrrolidin-2-yl)methanol]
0.806 µM | – | Cc1cc(S(=O)(=O)N[C@]2(C)C[C@H](O)C2)ccc1-c1ccc2[nH]nc(N)c2c1C [Example 36, 4-(3-amino-4-methyl-1H-indazol-5-yl)-N-((1s,3s)-3-hydroxy-1-methylcyclobutyl)-3-methylbenzenesulfonamide]
0.773 µM | – | Cc1c(-c2ccc(S(=O)(=O)N3CC(C)(C)C3)cc2Cl)ccc2[nH]nc(N)c12 [Example 1, 5-(2-chloro-4-((3,3-dimethylazetidin-1-yl)sulfonyl)phenyl)-4-methyl-1H-indazol-3-amine]
0.752 µM | – | Cc1cc(S(=O)(=O)N[C@H]2C[C@@H](O)C2)ccc1-c1ccc2[nH]nc(N)c2c1Cl [Example 30, 4-(3-amino-4-chloro-1H-indazol-5-yl)-N-((1s,3s)-3-hydroxycyclobutyl)-3-methylbenzenesulfonamide]
0.745 µM | – | Cc1cc(S(=O)(=O)N[C@@H]2CCC[C@@H](C#N)C2)ccc1-c1ccc2[nH]nc(N)c2c1C [Example 26, 4-(3-amino-4-methyl-1H-indazol-5-yl)-N-((1R,3R)-3-cyanocyclohexyl)-3-methylbenzenesulfonamide]
0.74 µM | – | Nc1n[nH]c2ccc(-c3ccc(S(=O)(=O)N4CC(F)(F)C[C@H]4CO)cc3Cl)c(Cl)c12 [Example 53, (S)-(1-((4-(3-amino-4-chloro-1H-indazol-5-yl)-3-chlorophenyl)sulfonyl)-4,4-difluoropyrrolidin-2-yl)methanol]
0.731 µM | – | COc1c(-c2ccc(S(=O)(=O)N3CC(F)(F)C[C@H]3CO)cc2Cl)ccc2[nH]nc(N)c12 [Example 86, (S)-(1-((4-(3-amino-4-methoxy-1H-indazol-5-yl)-3-chlorophenyl)sulfonyl)-4,4-difluoropyrrolidin-2-yl)methanol]
0.63 µM | – | Cc1cc(S(=O)(=O)N2CCC(O)(C(F)(F)F)C2)ccc1-c1ccc2[nH]nc(N)c2c1C (stereo not drawn) [Example 62, 1-((4-(3-amino-4-methyl-1H-indazol-5-yl)-3-methylphenyl)sulfonyl)-3-(trifluoromethyl)pyrrolidin-3-ol]
0.554 µM | – | Cc1c(-c2c(F)cc(S(=O)(=O)N3CC(F)(F)C[C@H]3CO)cc2F)ccc2[nH]nc(N)c12 [Example 89, (S)-(1-((4-(3-amino-4-methyl-1H-indazol-5-yl)-3,5-difluorophenyl)sulfonyl)-4,4-difluoropyrrolidin-2-yl)methanol]
0.474 µM | – | Nc1n[nH]c2ccc(-c3ccc(S(=O)(=O)N[C@H]4C[C@](O)(C(F)(F)F)C4)cc3Cl)c(Cl)c12 [Example 64, 4-(3-amino-4-chloro-1H-indazol-5-yl)-3-chloro-N-((1s,3s)-3-hydroxy-3-(trifluoromethyl)cyclobutyl)benzenesulfonamide]
0.372 µM | – | Cc1cc(S(=O)(=O)N2CC(F)(F)C[C@H]2C(N)=O)ccc1-c1ccc2[nH]nc(N)c2c1C [Example 81, (S)-1-((4-(3-amino-4-methyl-1H-indazol-5-yl)-3-methylphenyl)sulfonyl)-4,4-difluoropyrrolidine-2-carboxamide]
0.362 µM | – | Cc1c(-c2ccc(S(=O)(=O)N[C@@H]3CCC[C@@H]3O)cc2Cl)ccc2[nH]nc(N)c12 [Example 39, 4-(3-amino-4-methyl-1H-indazol-5-yl)-3-chloro-N-((1R,2S)-2-hydroxycyclopentyl)benzenesulfonamide]
0.286 µM | – | COc1c(-c2ccc(S(=O)(=O)N[C@@H]3CCC[C@@H]3O)cc2Cl)ccc2[nH]nc(N)c12 [Example 74]
0.282 µM | – | COc1c(-c2ccc(S(=O)(=O)NC3CC(O)(C(F)(F)F)C3)cc2C)ccc2[nH]nc(N)c12 (stereo not drawn) [Example 70, 4-(3-amino-4-methoxy-1H-indazol-5-yl)-N-((1s,3s)-3-hydroxy-3-(trifluoromethyl)cyclobutyl)-3-methylbenzenesulfonamide]
0.277 µM | – | Cc1cc(S(=O)(=O)N[C@@H]2CCC[C@@H]2O)ccc1-c1ccc2[nH]nc(N)c2c1Cl [Example 29, 4-(3-amino-4-chloro-1H-indazol-5-yl)-N-((1R,2S)-2-hydroxycyclopentyl)-3-methylbenzenesulfonamide]
0.17 µM | – | Cc1cc(S(=O)(=O)N2CC(F)=C[C@H]2CO)ccc1-c1ccc2[nH]nc(N)c2c1C [Example 33, (S)-(1-((4-(3-amino-4-methyl-1H-indazol-5-yl)-3-methylphenyl)sulfonyl)-4-fluoro-2,5-dihydro-1H-pyrrol-2-yl)methanol]
